Source: patent US20080045419A1, “Screening Assay” (priority 2006, published 2008)
“Also recorded” adds a separate entry of the source.

Test system: Rad17 self-interaction (Rad17/Rad17)
Test: DIPI assay (DNA-damage-induced increased protein interaction), two-hybrid colony growth on -His medium
Format: cell-based, Saccharomyces cerevisiae
Settings: for Rad17 self-interaction response in DIPI assay (colony growth on -His medium): wild-type reporter strain CG1945, pCAD1-Rad17/pGBT9-Rad17, plate assay
Source text: A reporter strain is co-transformed with Rad17-Gal4-DNA-binding-domain and Rad17-Gal4-transcriptional-activation-domain fusions (“bait” and “prey” plasmids). Enhanced protein-protein interaction is visualized by activation of a Gal4responsive chromosomal reporter gene construct required for histidine synthesis (HIS3) (FIG. 1).
These cells are exposed to a DNA-damaging agent in form of a gradient on a histidine-omission plate. […] It should also be mentioned that the use of a blue color marker (LacZ gene) is possible. It is not unusual that the context of a promoter affects the specific interaction and may be easily addressed by switching to one of a wide variety or readily available commercial and non-commercial expression systems.
[pCAD1-Rad17/pGBT9-Rad17], respectively. […] Responses in a wild-type reporter strain (WT, left two plates) and a mutant deleted for topoisomerase I (top1δ, right) are compared. Cells of the reporter strain (CG1945), previously co-transformed with Rad17 bait/prey Gal4-fusions (pCAD1-Rad17/pGBT9-Rad17) were plated as indicated. The genotoxic agent CPT or DMSO (solvent control) was applied on a filter paper.
Using manual replicating on large petri dishes, these were transferred to -His plates that had been inoculated with cells of a reporter strain, co-transformed with Rad17 bait/prey plasmids as described.
DIPI assay was performed in a high-throughput mode. The Petri dish assay was adapted to the 96 well plate format in order to use conventional high-throughput machinery. Two protocols were explored (FIG. 4). In both cases, the selective agar medium lacking leucine, tryptophan and histidine was poured in the plate wells. In protocol 1, cell suspension was pipeted on top of the plate and, after drying, a sample of CPT. In protocol 2, cells were mixed with agar and pipeted, resulting in a cell-containing agar layer. CPT was added on top. After 3-4 days, the plates were evaluated for colony growth.
All cells will be exposed to a CPT concentration that leads to some low amount of colony formation on selective medium. Briefly, the haploid two-hybrid reporter strain CG1945 (4) is co-transformed with plasmids pGBT9Rad17 and pCAD1-Rad17. […] The selected co-transformant is grown up to stationary phase in yeast synthetic medium (SM) without tryptophan and leucine to retain both plasmids. Incubation period is typically two days at 30° C. with shaking. The standard recipe for yeast SM calls for 2% dextrose, 0.67% yeast nitrogen base with ammonium sulfate/without amino acids (e.g. from US Biological) and a -Trp-Leu amino acid dropout mix (Qbiogene, Inc.).

Row | SMILES | Rad17 self-interaction response in DIPI assay (colony growth on -His medium) | number of colonies in DIPI assay, 96 well plate format (96 well plate, after 3-4 days, compared to control (DMSO), listed as CPT) | Rad17 homomeric interaction response in DIPI assay (top1δ background (topoisomerase I deleted)) | Rad17 self-interaction response in DIPI assay (colony growth on -His medium) (listed as CPT)
1 | CC[C@@]1(OC(=O)CN)C(=O)OCc2c1cc1n(c2=O)Cc2cc3ccccc3nc2-1.Cl [NSC606985, glycine 4-ethyl-3,4,12,14-tetrahydro-3,14-dioxo-1H-pyrano[3′, 4′:6,7]indolizino[1,2-b]quinolin-4-yl ester, (S)-monohydrochloride] | increasing Rad17 self-interaction |  |  | 
2 | CC[C@@]1(O)C(=O)OCc2c1cc1n(c2=O)Cc2cc3ccccc3nc2-1 [camptothecin] | very responsive; also recorded: increasing Rad17 self-interaction | number of colonies increased significantly; also recorded: number of colonies is increased | absence of increased homomeric Rad17 interaction | positive CPT response
